The test system of the test is HEK293 cells cotransfected with the FOP control vector. As to the kind of experiment: HEK293 FOP assay (control reporter with non-functional TCF elements). Format: cell-based. The settings on record: Homo sapiens, 16 hours. A digest of the protocol:
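Stable HEK293 line carrying FOP control reporter (randomized non-functional TCF sites, with pcDNA3), Geneticin-selected, plated 24 h before assay. Stimulated with recombinant human Wnt-3a (2500-5 ng/ml) and compounds 50 μM–15 nM (3.16-fold steps) in CAFTY buffer pH 7.4 with 2 mM Ca2+, 0.01% BSA, run parallel to TOP line.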

As usually defined, the IC50 is the concentration that gives 50% inhibition. Read a low IC50 as greater potency in that assay. In turn, `O=C(NC1CCC2(CC1)CCN(c1cc(F)c(F)cc1Cl)C2=O)c1cnn2cccnc12` (single isomer, unassigned; isomer 1) [Example 168, N-[2-(2-chloro-4,5-difluorophenyl)-1-oxo-2-azaspiro[4.5]dec-8-yl]pyrazolo[1,5-a]pyrimidine-3-carboxamide (isomer 1)] yielded a half-inhibitory concentration (IC50) of at least 50 µM.

With `CNC(=O)c1nc[nH]c1C(=O)N[C@H]1CC[C@H](C(=O)Nc2cccnc2Cl)CC1` [Example 10, N^5-{trans-4-[(2-chloropyridin-3-yl)carbamoyl]cyclohexyl}-N^4-methyl-1H-imidazole-4,5-dicarboxamide], the IC50 is at least 50 µM.

In the case of `CNC(=O)c1nc[nH]c1C(=O)N[C@H]1CC[C@H](C(=O)Nc2ccncc2Cl)CC1` [Example 11, N^5-{trans-4-[(3-chloropyridin-4-yl)carbamoyl]cyclohexyl}-N^4-methyl-1H-imidazole-4,5-dicarboxamide], the IC50 was at least 50 µM.

In turn, `CC1CCN(CCNC(=O)c2nc[nH]c2C(=O)N[C@H]2CC[C@H](C(=O)Nc3ccc(F)cc3Cl)CC2)CC1` [Example 12, N^5-{trans-4-[(2-chloro-4-fluorophenyl)carbamoyl]cyclohexyl}-N^4-[2-(4-methylpiperidin-1-yl)ethyl]-1H-imidazole-4,5-dicarboxamide] displayed an IC50 of at least 50 µM.

The molecule `O=C(NCCN1CCOCC1)c1nc[nH]c1C(=O)N[C@H]1CC[C@H](C(=O)Nc2ccc(F)cc2Cl)CC1` [Example 13, N^5-{trans-4-[(2-chloro-4-fluorophenyl)carbamoyl]cyclohexyl}-N^4-[2-(morpholin-4-yl)ethyl]-1H-imidazole-4,5-dicarboxamide] gave an IC50 of at least 50 µM.

`O=C(N[C@H]1CC[C@H](C(=O)Nc2ccc(F)cc2Cl)CC1)c1[nH]cnc1C(=O)N1CC2(COC2)C1` [Example 14, N-{trans-4-[(2-chloro-4-fluorophenyl)carbamoyl]cyclohexyl}-4-(2-oxa-6-azaspiro[3.3]hept-6-ylcarbonyl)-1H-imidazole-5-carboxamide] had an IC50 of at least 50 µM.

Take `CCNC(=O)c1nc[nH]c1C(=O)N[C@H]1CC[C@H](C(=O)Nc2ccc(F)cc2Cl)CC1` [Example 15, N^5-{trans-4-[(2-chloro-4-fluorophenyl)carbamoyl]cyclohexyl}-N^4-ethyl-1H-imidazole-4,5-dicarboxamide]: the IC50 is at least 50 µM.

In the case of `CN(C)C(=O)c1nc[nH]c1C(=O)N[C@H]1CC[C@H](C(=O)Nc2ccc(F)cc2Cl)CC1` [Example 16, N^5-{trans-4-[(2-chloro-4-fluorophenyl)carbamoyl]cyclohexyl}-N^4,N^4-dimethyl-1H-imidazole-4,5-dicarboxamide], the IC50 was at least 50 µM.

`O=C(NC1CC1)c1nc[nH]c1C(=O)N[C@H]1CC[C@H](C(=O)Nc2ccc(F)cc2Cl)CC1` [Example 17, N^5-{trans-4-[(2-chloro-4-fluorophenyl)carbamoyl]cyclohexyl}-N^4-cyclopropyl-1H-imidazole-4,5-dicarboxamide] had a concentration for half-maximal inhibition (IC50) of at least 50 µM.

In turn, `O=C(NCCO)c1nc[nH]c1C(=O)N[C@H]1CC[C@H](C(=O)Nc2ccc(F)cc2Cl)CC1` [Example 18, N^5-{trans-4-[(2-chloro-4-fluorophenyl)carbamoyl]cyclohexyl}-N^4-(2-hydroxyethyl)-1H-imidazole-4,5-dicarboxamide] came in with an IC50 of at least 50 µM.

For the molecule `COCCNC(=O)c1nc[nH]c1C(=O)N[C@H]1CC[C@H](C(=O)Nc2ccc(F)cc2Cl)CC1` [Example 19, N^5-{trans-4-[(2-chloro-4-fluorophenyl)carbamoyl]cyclohexyl}-N^4-(2-methoxyethyl)-1H-imidazole-4,5-dicarboxamide], the IC50 is at least 50 µM.

In the case of `CC(C)NC(=O)c1nc[nH]c1C(=O)N[C@H]1CC[C@H](C(=O)Nc2ccc(F)cc2Cl)CC1` [Example 20, N^5-{trans-4-[(2-chloro-4-fluorophenyl)carbamoyl]cyclohexyl}-N^4-isopropyl-1H-imidazole-4,5-dicarboxamide], the IC50 is at least 50 µM.

`O=C(NCC(F)(F)F)c1nc[nH]c1C(=O)N[C@H]1CC[C@H](C(=O)Nc2ccc(F)cc2Cl)CC1` [Example 21, N^5-{trans-4-[(2-chloro-4-fluorophenyl)carbamoyl]cyclohexyl}-N^4-(2,2,2-trifluoroethyl)-1H-imidazole-4,5-dicarboxamide] yielded an IC50 of at least 50 µM.

Molecule `O=C(N[C@H]1CC[C@@]2(CCN(c3ccc(F)cc3Cl)C2=O)CC1)c1[nH]cnc1C(=O)N1CCN(CC(F)(F)F)CC1` [Example 167, N-[(trans)-2-(2-chloro-4-fluorophenyl)-1-oxo-2-azaspiro[4.5]dec-8-yl]-4-{[4-(2,2,2-trifluoroethyl)piperazin-1-yl]carbonyl}-1H-imidazole-5-carboxamide] gave an IC50 of at least 50 µM.

The molecule `Cc1cc(C)n2ncc(C(=O)N[C@H]3CC[C@H](C(=O)Nc4cnccc4Cl)CC3)c2n1` [Example 169, N-{trans-4-[(4-chloropyridin-3-yl)carbamoyl]cyclohexyl}-5,7-dimethylpyrazolo[1,5-a]pyrimidine-3-carboxamide] showed an IC50 of at least 50 µM.

With `CNC(=O)c1nc[nH]c1C(=O)N[C@H]1CC[C@H](C(=O)Nc2cc(C(C)(C)O)ccc2Cl)CC1` [Example 170, N^5-(trans-4-{[2-chloro-5-(2-hydroxypropan-2-yl)phenyl]carbamoyl}cyclohexyl)-N^4-methyl-1H-imidazole-4,5-dicarboxamide], the IC50 is at least 50 µM.

`CNC(=O)c1nc[nH]c1C(=O)N[C@H]1CC[C@H](C(=O)N(C)c2ccccc2)CC1` [Example 171, N^4-methyl-N^5-{trans-4-[methyl(phenyl)carbamoyl]cyclohexyl}-1H-imidazole-4,5-dicarboxamide] returned an IC50 of at least 50 µM.

Turning to `CNC(=O)c1nc[nH]c1C(=O)N[C@H]1CC[C@H](C(=O)N(C)c2ccc(F)cc2)CC1` [Example 172, N^5-{trans-4-[(4-fluorophenyl)(methyl)carbamoyl]cyclohexyl}-N^4-methyl-1H-imidazole-4,5-dicarboxamide], the IC50 is at least 50 µM.

Consider `CNC(=O)c1nc[nH]c1C(=O)N[C@H]1CC[C@H](C(=O)N(C)c2ccc(F)cc2Cl)CC1` [Example 173, N^5-{trans-4-[(2-chloro-4-fluorophenyl)(methyl)carbamoyl]cyclohexyl}-N^4-methyl-1H-imidazole-4,5-dicarboxamide], for which the IC50 is at least 50 µM.

On to `Cc1cc(N(C)C(=O)[C@H]2CC[C@H](NC(=O)c3cnn4cccnc34)CC2)c(Cl)cc1F` [Example 176, N-{trans-4-[(2-chloro-4-fluoro-5-methylphenyl)(methyl)carbamoyl]cyclohexyl}pyrazolo[1,5-a]pyrimidine-3-carboxamide], for which the IC50 worked out at 5.3 µM.

With `O=C(N[C@H]1CC[C@H](C(=O)N(CC2CC2)c2ccc(F)cc2Cl)CC1)c1cnn2cccnc12` [Example 177, N-{trans-4-[(2-chloro-4-fluorophenyl)(cyclopropylmethyl)carbamoyl]cyclohexyl}pyrazolo[1,5-a]pyrimidine-3-carboxamide], half-maximal inhibition (IC50) required 40 µM.

The molecule `Cc1ccccc1N(C)C(=O)[C@H]1CC[C@H](NC(=O)c2cnn3cccnc23)CC1` [Example 178, N-{trans-4-[methyl(2-methylphenyl)carbamoyl]cyclohexyl}pyrazolo[1,5-a]pyrimidine-3-carboxamide] returned a 50% inhibitory concentration (IC50) of at least 50 µM.

Molecule `C[C@]1(C(=O)Nc2ccc(F)cc2Cl)CC[C@H](NC(=O)c2cnn3cccnc23)CC1` [Example 179, N-{trans-4-[(2-chloro-4-fluorophenyl)carbamoyl]-4-methylcyclohexyl}pyrazolo[1,5-a]pyrimidine-3-carboxamide] returned an IC50 of at least 50 µM.

`C[C@]1(C(=O)Nc2ccc(F)cc2Cl)CC[C@@H](NC(=O)c2cnn3cccnc23)CC1` [Example 180, N-{cis-4-[(2-chloro-4-fluorophenyl)carbamoyl]-4-methylcyclohexyl}pyrazolo[1,5-a]pyrimidine-3-carboxamide] had an IC50 of at least 50 µM.

Take `CNC(=O)c1[nH]cnc1C(=O)N[C@H]1CC[C@@](C)(C(=O)Nc2ccc(F)cc2Cl)CC1` [Example 181, N^4-{cis-4-[(2-chloro-4-fluorophenyl)carbamoyl]-4-methylcyclohexyl}-N^5-methyl-1H-imidazole-4,5-dicarboxamide]: half-maximal inhibition (IC50) required 24 µM.

With `CNC(=O)c1nc[nH]c1C(=O)N[C@H]1CC[C@]2(CCN(c3ccc(F)cc3Cl)C2=O)CC1` [Example 182, N^5-[(cis)-2-(2-chloro-4-fluorophenyl)-1-oxo-2-azaspiro[4.5]dec-8-yl]-N^4-methyl-1H-imidazole-4,5-dicarboxamide], the IC50 is at least 50 µM.

As for `CC1CN(C(=O)c2nc[nH]c2C(=O)N[C@H]2CC[C@@]3(CCN(c4ccc(F)cc4Cl)C3=O)CC2)CCS(=O)(=O)C1` (stereo partly drawn) [Example 183, N-[(trans)-2-(2-chloro-4-fluorophenyl)-1-oxo-2-azaspiro[4.5]dec-8-yl]-4-[(6-methyl-1,1-dioxido-1,4-thiazepan-4-yl)carbonyl]-1H-imidazole-5-carboxamide], the IC50 is at least 50 µM.

On to `CN1CC2(CCN(C(=O)c3nc[nH]c3C(=O)N[C@H]3CC[C@@]4(CCN(c5ccc(F)cc5Cl)C4=O)CC3)C2)C1` [Example 184, N-[(trans)-2-(2-chloro-4-fluorophenyl)-1-oxo-2-azaspiro[4.5]dec-8-yl]-4-[(2-methyl-2,6-diazaspiro[3.4]oct-6-yl)carbonyl]-1H-imidazole-5-carboxamide], for which the IC50 was at least 50 µM.

As to `CN1CC2(C1)CN(C(=O)c1nc[nH]c1C(=O)N[C@H]1CC[C@@]3(CCN(c4ccc(F)cc4Cl)C3=O)CC1)C2` [Example 185, N-[(trans)-2-(2-chloro-4-fluorophenyl)-1-oxo-2-azaspiro[4.5]dec-8-yl]-4-[(6-methyl-2,6-diazaspiro[3.3]hept-2-yl)carbonyl]-1H-imidazole-5-carboxamide], the IC50 was at least 50 µM.

`NC(=O)c1nc[nH]c1C(=O)N[C@H]1CC[C@@]2(CCN(c3ccc(F)cc3Cl)C2=O)CC1` [Example 186, N^5-[(trans)-2-(2-chloro-4-fluorophenyl)-1-oxo-2-azaspiro[4.5]dec-8-yl]-1H-imidazole-4,5-dicarboxamide] displayed an IC50 of at least 50 µM.

Values taken from patent US20180148418A1, “AMIDO-SUBSTITUTED CYCLOHEXANE DERIVATIVES” (Bayer Pharma Aktiengesellschaft, priority 2015, published 2018).
